The record followed here is ChEMBL document CHEMBL1201862, “PubChem BioAssay data set” (2004).

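Assay format: 96-well plates, 48-hour exposure. The concentration for 50% growth inhibition is given as GI50.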 Calls of active or inactive are those of the source. No stated cut-off is given here; in the data, active = GI50 up to about 1.1 µM and inactive = higher.

Among the test systems are COLO 205; MDA-N; OVCAR-8; HOP-92; Malme-3M; TK-10; SF-295; NCI-H460; OVCAR-5; 786-0; HT-29; NCI/ADR-RES; NCI-H226; SNB-19; SN12C; MDA-MB-435; EKVX; M14; A498; T47D.
Holding throughout (test): growth of human tumour cells (NCI), 48 h

With `O=S(=O)(O)c1ccc2c(/N=N/c3ccc(S(=O)(=O)O)c4ccccc34)c(O)c(S(=O)(=O)O)cc2c1`, the GI50 with COLO 205, in the experiment with MDA-N, in the experiment with OVCAR-8, in the experiment with HOP-92, in the experiment on Malme-3M and in the experiment with TK-10 was > 100 µM (inactive) each time. Moreover, the GI50 in the experiment with SF-295, in the experiment on NCI-H460, with OVCAR-5, in the experiment on 786-0, in the experiment with HT-29 and with NCI/ADR-RES was > 100 µM (inactive) in each case. For the same compound, the GI50 in the experiment with NCI-H226, in the experiment with SNB-19, in the experiment on SN12C, in the experiment on MDA-MB-435, with EKVX and in the experiment on M14 was > 100 µM (inactive) in each case. The GI50 in the experiment with A498 and in the experiment with T47D was > 100 µM (inactive) throughout.

As for `Cc1nc2c(=O)[nH]c3ccc(Cl)cc3c2o1`, the GI50 in the experiment with COLO 205, in the experiment with MDA-N, in the experiment with OVCAR-8, in the experiment on HOP-92, in the experiment with Malme-3M and in the experiment on TK-10 was > 100 µM (inactive) in each case. Further, the GI50 in the experiment with SF-295, with NCI-H460, in the experiment on OVCAR-5, with 786-0, in the experiment on HT-29 and in the experiment with NCI/ADR-RES was > 100 µM (inactive) each time. Further, the GI50 was > 100 µM (inactive) with NCI-H226; > 100 µM (inactive) in the experiment with SNB-19; > 100 µM (inactive) in the experiment with SN12C; > 100 µM (inactive) in the experiment on MDA-MB-435; 69.7 µM (inactive) in the experiment with EKVX; > 100 µM (inactive) in the experiment with M14. The GI50 in the experiment on A498 and in the experiment on T47D was > 100 µM (inactive) each time.

On to `COC(=O)[C@H](Cc1ccccc1)NC(=O)[C@H](Cc1ccccc1)NC(=O)[C@@H]1CCCN1C(=O)N[C@H]1C2C=CC(C2)C1C(=O)N1CCC[C@H]1C(=O)N[C@@H](C)C(=O)N[C@H](C(=O)OC)C(C)C` (stereo not given in full), for which the GI50 with COLO 205 was > 100 µM (inactive); with MDA-N, > 100 µM (inactive); in the experiment with OVCAR-8, > 100 µM (inactive); in the experiment on HOP-92, 73.1 µM (inactive); with Malme-3M, > 100 µM (inactive); in the experiment with TK-10, 65.5 µM (inactive). Besides, the GI50 is 30.8 µM (inactive) in the experiment on SF-295; > 100 µM (inactive) with NCI-H460; > 100 µM (inactive) with OVCAR-5; > 100 µM (inactive) in the experiment with 786-0; > 100 µM (inactive) in the experiment on HT-29; > 100 µM (inactive) in the experiment on NCI/ADR-RES. Further, the GI50 in the experiment with NCI-H226, in the experiment with SNB-19, in the experiment with SN12C, with MDA-MB-435, in the experiment on EKVX and in the experiment on M14 was > 100 µM (inactive) throughout. Also, the GI50 in the experiment on A498 was > 100 µM (inactive); in the experiment with T47D, 60.1 µM (inactive).

On to `CC(C)n1c(=O)c2nn3c(=O)n(C(C)C)c(=O)c3nn2c1=O`, for which the GI50 in the experiment on COLO 205, with MDA-N, in the experiment with OVCAR-8, in the experiment on HOP-92, in the experiment with Malme-3M and with TK-10 was > 100 µM (inactive) throughout. Besides, the GI50 with SF-295, with NCI-H460, in the experiment on OVCAR-5, in the experiment on 786-0, with HT-29 and with NCI/ADR-RES was > 100 µM (inactive) throughout. Further, the GI50 in the experiment with NCI-H226, in the experiment with SNB-19, in the experiment with SN12C, in the experiment on MDA-MB-435, in the experiment on EKVX and with M14 was > 100 µM (inactive) each time. Moreover, the GI50 with A498 and in the experiment on T47D was > 100 µM (inactive) each time.

For the compound `NC(=O)C(C(N)=O)=C(O)/C(O)=C/C(=O)c1ccccc1`, the GI50 in the experiment on COLO 205 was > 100 µM (inactive); in the experiment with MDA-N it was > 100 µM (inactive); in the experiment with OVCAR-8 it was > 100 µM (inactive); in the experiment on HOP-92, > 100 µM (inactive); in the experiment on Malme-3M it was 39.9 µM (inactive); with TK-10 it was > 100 µM (inactive). In addition, the GI50 in the experiment on SF-295, with NCI-H460, in the experiment with OVCAR-5, in the experiment with 786-0, in the experiment on HT-29 and with NCI/ADR-RES was > 100 µM (inactive) in each case. The GI50 in the experiment with NCI-H226, in the experiment on SNB-19, in the experiment on SN12C, with MDA-MB-435, in the experiment with EKVX and with M14 was > 100 µM (inactive) throughout. Besides, the GI50 in the experiment with A498 and in the experiment with T47D was > 100 µM (inactive) throughout.

Consider `CC(C)C(=O)NCC[C@@H](CNC(=O)OC(C)(C)C)NC(=O)OC(C)(C)C`, for which the GI50 with COLO 205, in the experiment with MDA-N, in the experiment on OVCAR-8, in the experiment on HOP-92, in the experiment with Malme-3M and in the experiment on TK-10 was > 100 µM (inactive) throughout. In addition, the GI50 in the experiment with SF-295, with NCI-H460, in the experiment on OVCAR-5, with 786-0, with HT-29 and in the experiment on NCI/ADR-RES was > 100 µM (inactive) throughout. Moreover, the GI50 with NCI-H226, with SNB-19, in the experiment on SN12C, with MDA-MB-435, in the experiment on EKVX and in the experiment with M14 was > 100 µM (inactive) each time. Besides, the GI50 in the experiment on A498 and in the experiment with T47D was > 100 µM (inactive) each time.

Take `CC(C)CC(NC=O)C(=O)NC(Cc1ccccc1)NC(=O)CNC(=O)C(C)NC(=O)OC(C)(C)C` (stereo not given): the GI50 in the experiment on COLO 205, with MDA-N, in the experiment on OVCAR-8, in the experiment with HOP-92, in the experiment with Malme-3M and in the experiment with TK-10 was > 100 µM (inactive) each time. Besides, the GI50 in the experiment on SF-295, in the experiment on NCI-H460, with OVCAR-5, with 786-0, in the experiment on HT-29 and with NCI/ADR-RES was > 100 µM (inactive) throughout. The GI50 in the experiment on NCI-H226, in the experiment on SNB-19, in the experiment with SN12C, in the experiment with MDA-MB-435, with EKVX and in the experiment with M14 was > 100 µM (inactive) throughout. For the same compound, the GI50 in the experiment on A498 was 21.9 µM (inactive); with T47D, > 100 µM (inactive).

For `N#Cc1c(N)nc(SCc2ccccc2)c(C#N)c1-c1ccc(O)cc1`, the GI50 was 15.6 µM (inactive) in the experiment with COLO 205; 13 µM (inactive) with MDA-N; 15 µM (inactive) with OVCAR-8; 6.97 µM (inactive) with HOP-92; 15.3 µM (inactive) with Malme-3M; > 41.8 µM (inactive) in the experiment on TK-10. Besides, the GI50 with SF-295 was 13.6 µM (inactive); in the experiment on NCI-H460, 25.8 µM (inactive); in the experiment on OVCAR-5, 16.4 µM (inactive); in the experiment with 786-0 it was 14 µM (inactive); in the experiment on HT-29, 8.22 µM (inactive); in the experiment on NCI/ADR-RES, 15.7 µM (inactive). Moreover, the GI50 in the experiment on NCI-H226 was 22.4 µM (inactive); in the experiment on SNB-19, 17.3 µM (inactive); in the experiment with SN12C, 13.8 µM (inactive); in the experiment with MDA-MB-435 it was 11.6 µM (inactive); in the experiment with EKVX it was 9.44 µM (inactive); in the experiment on M14 it was 14.2 µM (inactive). The GI50 with A498 is 13.1 µM (inactive); with T47D it was 5.96 µM (inactive).

As for `CCCCC(=O)OC[n+]1ccc2c(C)c3[nH]c4ccccc4c3c(C)c2c1`, the GI50 in the experiment with COLO 205 was 0.535 µM (active); in the experiment on MDA-N, 0.484 µM (active); in the experiment on OVCAR-8, 0.385 µM (active); with HOP-92, 1.62 µM (inactive); in the experiment on Malme-3M, 1.46 µM (inactive); in the experiment on TK-10, 1.21 µM (inactive). Moreover, the GI50 in the experiment on SF-295 was 0.676 µM (active); in the experiment on NCI-H460, 0.0275 µM (active); in the experiment on OVCAR-5, 0.525 µM (active); in the experiment on 786-0, 0.298 µM (active); in the experiment with HT-29 it was 0.46 µM (active); in the experiment on NCI/ADR-RES, 0.526 µM (active). Further, the GI50 in the experiment with NCI-H226 was 0.475 µM (active); in the experiment with SNB-19, 0.466 µM (active); in the experiment with SN12C, 0.376 µM (active); in the experiment with MDA-MB-435, 0.618 µM (active); in the experiment on EKVX, 0.497 µM (active); in the experiment with M14 it was 1.34 µM (inactive). In addition, the GI50 in the experiment on A498 was 0.681 µM (active); with T47D it was 1.01 µM (active).

For the compound `O=C1Nc2ccc(S(=O)(=O)O)cc2/C1=N/Nc1ccccc1[N+](=O)[O-]`, the GI50 with COLO 205, with MDA-N, with OVCAR-8, in the experiment on HOP-92, with Malme-3M and with TK-10 was > 100 µM (inactive) throughout. Moreover, the GI50 was > 100 µM (inactive) with SF-295; > 100 µM (inactive) with NCI-H460; 42.9 µM (inactive) in the experiment on OVCAR-5; > 100 µM (inactive) in the experiment with 786-0; > 100 µM (inactive) with HT-29; > 100 µM (inactive) in the experiment with NCI/ADR-RES. The GI50 in the experiment on NCI-H226, in the experiment on SNB-19, with SN12C, with MDA-MB-435, in the experiment on EKVX and in the experiment with M14 was > 100 µM (inactive) each time. Moreover, the GI50 in the experiment on A498 was 70.1 µM (inactive); with T47D, > 100 µM (inactive).
